Experiments:
[1] = Pharmacokinetic study of oral vs intra-cecal administration of tacrolimus (Example 13); parameters: species or system Yorkshire-Cross farm swine; settings: female, Yorkshire-Cross, in vivo, 0.09 mg/kg
Description: (§1) No further randomization procedure was employed.

[2] = Tissue, plasma and GI content pharmacokinetics of tacrolimus, oral vs intra-cecal ingestible device (Example 10); parameters: species or system Yorkshire-Cross farm swine; settings: in vivo
Experimental: The primary objective of this study was to compare the tissue, plasma, rectal sample, and GI content pharmacokinetics of tacrolimus through oral versus intra-cecal ingestible device delivery in normal Yorkshire-Cross farm swine.
as §1
Animals in Group 1 received an ingestible device containing 0.8 mL of vehicle solution (80% alcohol, 20% HCO-60). Animals in Group 2 received orally […] liquid formulation of tacrolimus at 4 mg/0.8 mL per animal (Prograf: 5 mg/mL). Animals in Group 3 received intracecally an ingestible device containing tacrolimus at 1 mg in 0.8 mL per ingestible device. […]
Approximately 200˜400 mg of rectal content were collected, if available, with a fecal swab (Copan Diagnostics Nylon Flocked Dry Swabs, 502CS01). The fecal swab was pre-weighed and weighed after collection in the collection tube (Sterile Tube and Cap No Media, PFPM913S), and the sample weight was recorded. […]
For tissue necropsy, small intestine fluid and cecal fluid were collected separately from all the animals into two separate square plastic bottles, and stored at −20° C. The length and diameter of the cecum and the colon was measured from one animal in each group and recorded for reference. […] All samples were weighed, and the tissue sample weights were recorded. […]

SMILES: C=CC[C@@H]1/C=C(\C)C[C@H](C)C[C@H](OC)[C@H]2O[C@@](O)(C(=O)C(=O)N3CCCC[C@H]3C(=O)O[C@H](/C(C)=C/[C@@H]3CC[C@@H](O)[C@H](OC)C3)[C@H](C)[C@@H](O)CC1=O)[C@H](C)C[C@@H]2OC [tacrolimus]
- Ratio Tissue (mean) (ng/g)/AUG(0-12 hr) (ng · hr/mL) ([1]; pig, 12 h): 0
- Trough (12 hr) ([1]; pig, 12 h): 0.568 ng/mL
- Kp at 12 h ([1]; swine): 0
- Ratio Tissue (mean) (ng/g)/Tough(12 hr)(ng/mL) ([1]; swine, 12 h): 0
- level detected in tissue [2]: No measurable level

— patent US20220135666A1, “TREATMENT OF A DISEASE OF THE GASTROINTESTINAL TRACT WITH A S1P MODULATOR” (Progenity, Inc., priority 2017, published 2022)
